From PubChem BioAssay (NCI)
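Step 1: Grow cells in 96-well plates. Step 2: Expose to compound for 48 hours at 5 concentrations. Step 3: Interpolate endpoints linearly; if unreached, use highest concentration. At the TGI there is no net growth.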

What was measured:
Test in all cases: NCI anticancer screen, dose series, 48 h
HOP-62 NSCLC = test system: HOP-62 NSCLC
SNB-19 CNS = test system: SNB-19 CNS
SK-MEL-5 melanoma = test system: SK-MEL-5 melanoma
CAKI-1 renal = test system: CAKI-1 renal
RXF-631 renal = test system: RXF-631 renal
OVCAR-8 ovarian = test system: OVCAR-8 ovarian
RXF 393 renal = test system: RXF 393 renal
OVCAR-5 ovarian = test system: OVCAR-5 ovarian
OVCAR-3 ovarian = test system: OVCAR-3 ovarian
IGROV1 ovarian = test system: IGROV1 ovarian
XF 498 CNS = test system: XF 498 CNS
RPMI-8226 leukemia = test system: RPMI-8226 leukemia
UO-31 renal = test system: UO-31 renal
SF-295 CNS = test system: SF-295 CNS
M14 melanoma = test system: M14 melanoma
DLD-1 colon = test system: DLD-1 colon
HCT-15 colon = test system: HCT-15 colon
HCC-2998 colon = test system: HCC-2998 colon
SF-268 CNS = test system: SF-268 CNS
SK-MEL-28 melanoma = test system: SK-MEL-28 melanoma
UACC-257 melanoma = test system: UACC-257 melanoma
SNB-78 CNS = test system: SNB-78 CNS
LOX IMVI melanoma = test system: LOX IMVI melanoma
COLO 205 colon = test system: COLO 205 colon
HT29 colon = test system: HT29 colon
OVCAR-4 ovarian = test system: OVCAR-4 ovarian
HOP-92 NSCLC = test system: HOP-92 NSCLC
SW-620 colon = test system: SW-620 colon
M19-MEL melanoma = test system: M19-MEL melanoma
SN12C renal = test system: SN12C renal
TK-10 renal = test system: TK-10 renal
KM20L2 colon = test system: KM20L2 colon
ACHN renal = test system: ACHN renal
UACC-62 melanoma = test system: UACC-62 melanoma
NCI-H23 lung = test system: NCI-H23 lung
SR leukemia = test system: SR leukemia
SNB-75 CNS = test system: SNB-75 CNS
HL-60(TB) leukemia = test system: HL-60(TB) leukemia
NCI-H460 lung = test system: NCI-H460 lung
786-0 renal = test system: 786-0 renal
NCI-H226 lung = test system: NCI-H226 lung
NCI-H522 lung = test system: NCI-H522 lung
HCT-116 colon = test system: HCT-116 colon
U251 CNS = test system: U251 CNS
MOLT-4 leukemia = test system: MOLT-4 leukemia
MALME-3M melanoma = test system: MALME-3M melanoma
K-562 leukemia = test system: K-562 leukemia
A549 NSCLC = test system: A549 NSCLC
LXFL 529 NSCLC = test system: LXFL 529 NSCLC
DMS 114 small cell lung = test system: DMS 114 small cell lung
CCRF-CEM leukemia = test system: CCRF-CEM leukemia
DMS 273 small cell lung = test system: DMS 273 small cell lung
SK-OV-3 ovarian = test system: SK-OV-3 ovarian
SF-539 CNS = test system: SF-539 CNS
EKVX NSCLC = test system: EKVX NSCLC
KM12 colon = test system: KM12 colon
A498 renal = test system: A498 renal
HOP-18 NSCLC = test system: HOP-18 NSCLC
SK-MEL-2 melanoma = test system: SK-MEL-2 melanoma

## NC(=O)N/N=C(/c1nc2ccc([N+](=O)[O-])cc2[nH]c1=O)C(O)c1ccco1 (configuration not stated)
HOP-62 NSCLC
  TGI: 94.6 µM
SNB-19 CNS
  TGI: > 100 µM
SK-MEL-5 melanoma
  TGI: > 100 µM
CAKI-1 renal
  TGI: > 100 µM
RXF-631 renal
  TGI: > 100 µM
OVCAR-8 ovarian
  TGI: > 100 µM
RXF 393 renal
  TGI: > 100 µM
OVCAR-5 ovarian
  TGI: > 100 µM
OVCAR-3 ovarian
  TGI: > 100 µM
IGROV1 ovarian
  TGI: > 100 µM
XF 498 CNS
  TGI: > 100 µM
RPMI-8226 leukemia
  TGI: > 100 µM
UO-31 renal
  TGI: > 100 µM
SF-295 CNS
  TGI: > 100 µM
M14 melanoma
  TGI: > 100 µM
DLD-1 colon
  TGI: > 100 µM
HCT-15 colon
  TGI: 61 µM
HCC-2998 colon
  TGI: 85.3 µM
SF-268 CNS
  TGI: > 100 µM
SK-MEL-28 melanoma
  TGI: > 100 µM
UACC-257 melanoma
  TGI: > 100 µM
SNB-78 CNS
  TGI: > 100 µM
LOX IMVI melanoma
  TGI: > 100 µM
COLO 205 colon
  TGI: > 100 µM
HT29 colon
  TGI: > 100 µM
OVCAR-4 ovarian
  TGI: > 100 µM
HOP-92 NSCLC
  TGI: > 100 µM
SW-620 colon
  TGI: > 100 µM
M19-MEL melanoma
  TGI: > 100 µM
SN12C renal
  TGI: 33.5 µM
TK-10 renal
  TGI: > 100 µM
KM20L2 colon
  TGI: 66.4 µM
ACHN renal
  TGI: > 100 µM
UACC-62 melanoma
  TGI: > 100 µM
NCI-H23 lung
  TGI: > 100 µM
SR leukemia
  TGI: > 100 µM
SNB-75 CNS
  TGI: > 100 µM
HL-60(TB) leukemia
  TGI: > 100 µM
NCI-H460 lung
  TGI: > 100 µM
786-0 renal
  TGI: > 100 µM
NCI-H226 lung
  TGI: > 100 µM
NCI-H522 lung
  TGI: > 100 µM
HCT-116 colon
  TGI: > 100 µM
U251 CNS
  TGI: > 100 µM
MOLT-4 leukemia
  TGI: > 100 µM
MALME-3M melanoma
  TGI: > 100 µM
K-562 leukemia
  TGI: > 100 µM
A549 NSCLC
  TGI: > 100 µM
LXFL 529 NSCLC
  TGI: > 100 µM
DMS 114 small cell lung
  TGI: > 100 µM
CCRF-CEM leukemia
  TGI: > 100 µM
DMS 273 small cell lung
  TGI: > 100 µM
SK-OV-3 ovarian
  TGI: > 100 µM
SF-539 CNS
  TGI: 30.9 µM

## COC[C@@H](Cc1ccc(OC)c(OC)c1)[C@@H](COC)Cc1ccc(OC)c(OC)c1
SNB-19 CNS
  TGI: > 100 µM
SK-MEL-5 melanoma
  TGI: > 100 µM
OVCAR-8 ovarian
  TGI: > 100 µM
RXF 393 renal
  TGI: > 100 µM
OVCAR-5 ovarian
  TGI: > 100 µM
OVCAR-3 ovarian
  TGI: > 100 µM
IGROV1 ovarian
  TGI: > 100 µM
XF 498 CNS
  TGI: > 100 µM
EKVX NSCLC
  TGI: > 100 µM
UO-31 renal
  TGI: > 100 µM
SF-295 CNS
  TGI: > 100 µM
M14 melanoma
  TGI: > 100 µM
DLD-1 colon
  TGI: > 100 µM
HCT-15 colon
  TGI: > 100 µM
HCC-2998 colon
  TGI: > 100 µM
SF-268 CNS
  TGI: > 100 µM
SK-MEL-28 melanoma
  TGI: > 100 µM
UACC-257 melanoma
  TGI: > 100 µM
SNB-78 CNS
  TGI: > 100 µM
LOX IMVI melanoma
  TGI: > 100 µM
COLO 205 colon
  TGI: > 100 µM
HT29 colon
  TGI: > 100 µM
KM12 colon
  TGI: > 100 µM
HOP-92 NSCLC
  TGI: > 100 µM
SW-620 colon
  TGI: > 100 µM
M19-MEL melanoma
  TGI: > 100 µM
SN12C renal
  TGI: > 100 µM
A498 renal
  TGI: > 100 µM
TK-10 renal
  TGI: > 100 µM
KM20L2 colon
  TGI: > 100 µM
ACHN renal
  TGI: > 100 µM
UACC-62 melanoma
  TGI: > 100 µM
NCI-H23 lung
  TGI: > 100 µM
SR leukemia
  TGI: > 100 µM
SNB-75 CNS
  TGI: > 100 µM
HL-60(TB) leukemia
  TGI: > 100 µM
NCI-H460 lung
  TGI: > 100 µM
HOP-18 NSCLC
  TGI: > 100 µM
NCI-H522 lung
  TGI: > 100 µM
HCT-116 colon
  TGI: > 100 µM
U251 CNS
  TGI: > 100 µM
MOLT-4 leukemia
  TGI: > 100 µM
MALME-3M melanoma
  TGI: > 100 µM
K-562 leukemia
  TGI: > 100 µM
SK-MEL-2 melanoma
  TGI: > 100 µM
A549 NSCLC
  TGI: > 100 µM
LXFL 529 NSCLC
  TGI: > 100 µM
DMS 114 small cell lung
  TGI: > 100 µM
CCRF-CEM leukemia
  TGI: > 100 µM
DMS 273 small cell lung
  TGI: > 100 µM
SK-OV-3 ovarian
  TGI: > 100 µM
SF-539 CNS
  TGI: > 100 µM

## C[n+]1c(N)n(C(=O)OCc2ccccc2)c(=O)c2c1ncn2C(=O)OCc1ccccc1
HOP-62 NSCLC
  TGI: > 100 µM
SNB-19 CNS
  TGI: > 100 µM
SK-MEL-5 melanoma
  TGI: > 100 µM
CAKI-1 renal
  TGI: > 100 µM
OVCAR-8 ovarian
  TGI: > 100 µM
OVCAR-5 ovarian
  TGI: > 100 µM
OVCAR-3 ovarian
  TGI: > 100 µM
IGROV1 ovarian
  TGI: > 100 µM
EKVX NSCLC
  TGI: > 100 µM
RPMI-8226 leukemia
  TGI: > 100 µM
UO-31 renal
  TGI: 62.9 µM
SF-295 CNS
  TGI: > 100 µM
M14 melanoma
  TGI: > 100 µM
DLD-1 colon
  TGI: > 100 µM
HCT-15 colon
  TGI: > 100 µM
HCC-2998 colon
  TGI: > 100 µM
SF-268 CNS
  TGI: > 100 µM
SK-MEL-28 melanoma
  TGI: > 100 µM
UACC-257 melanoma
  TGI: > 100 µM
SNB-78 CNS
  TGI: > 100 µM
LOX IMVI melanoma
  TGI: > 100 µM
COLO 205 colon
  TGI: > 100 µM
HT29 colon
  TGI: > 100 µM
OVCAR-4 ovarian
  TGI: > 100 µM
KM12 colon
  TGI: > 100 µM
SW-620 colon
  TGI: > 100 µM
M19-MEL melanoma
  TGI: > 100 µM
SN12C renal
  TGI: > 100 µM
A498 renal
  TGI: > 100 µM
TK-10 renal
  TGI: > 100 µM
KM20L2 colon
  TGI: > 100 µM
ACHN renal
  TGI: > 100 µM
UACC-62 melanoma
  TGI: > 100 µM
NCI-H23 lung
  TGI: > 100 µM
SNB-75 CNS
  TGI: 65.9 µM
HL-60(TB) leukemia
  TGI: > 100 µM
NCI-H460 lung
  TGI: > 100 µM
786-0 renal
  TGI: > 100 µM
HOP-18 NSCLC
  TGI: > 100 µM
NCI-H226 lung
  TGI: 59.8 µM
NCI-H522 lung
  TGI: > 100 µM
HCT-116 colon
  TGI: > 100 µM
U251 CNS
  TGI: > 100 µM
MOLT-4 leukemia
  TGI: > 100 µM
MALME-3M melanoma
  TGI: > 100 µM
K-562 leukemia
  TGI: > 100 µM
SK-MEL-2 melanoma
  TGI: > 100 µM
A549 NSCLC
  TGI: > 100 µM
LXFL 529 NSCLC
  TGI: > 100 µM
DMS 114 small cell lung
  TGI: > 100 µM
CCRF-CEM leukemia
  TGI: > 100 µM
DMS 273 small cell lung
  TGI: > 100 µM
SK-OV-3 ovarian
  TGI: > 100 µM

## COc1ccc(/C=N/Nc2nc(C)c3c(n2)Nc2ccccc2NC3=O)cc1
HOP-62 NSCLC
  TGI: > 100 µM
CAKI-1 renal
  TGI: > 100 µM
IGROV1 ovarian
  TGI: > 100 µM
XF 498 CNS
  TGI: > 100 µM
RPMI-8226 leukemia
  TGI: > 100 µM
UO-31 renal
  TGI: > 100 µM
M14 melanoma
  TGI: > 100 µM
DLD-1 colon
  TGI: > 100 µM
HCC-2998 colon
  TGI: > 100 µM
SF-268 CNS
  TGI: > 100 µM
SK-MEL-28 melanoma
  TGI: > 100 µM
SNB-78 CNS
  TGI: > 100 µM
COLO 205 colon
  TGI: > 100 µM
OVCAR-4 ovarian
  TGI: > 100 µM
HOP-92 NSCLC
  TGI: > 100 µM
M19-MEL melanoma
  TGI: > 100 µM
SN12C renal
  TGI: > 100 µM
A498 renal
  TGI: > 100 µM
ACHN renal
  TGI: > 100 µM
UACC-62 melanoma
  TGI: > 100 µM
NCI-H23 lung
  TGI: > 100 µM
SR leukemia
  TGI: > 100 µM
SNB-75 CNS
  TGI: > 100 µM
HL-60(TB) leukemia
  TGI: > 100 µM
786-0 renal
  TGI: > 100 µM
NCI-H226 lung
  TGI: > 100 µM
NCI-H522 lung
  TGI: > 100 µM
HCT-116 colon
  TGI: > 100 µM
MOLT-4 leukemia
  TGI: > 100 µM
MALME-3M melanoma
  TGI: > 100 µM
K-562 leukemia
  TGI: > 100 µM
SK-MEL-2 melanoma
  TGI: > 100 µM
LXFL 529 NSCLC
  TGI: > 100 µM
DMS 114 small cell lung
  TGI: > 100 µM
CCRF-CEM leukemia
  TGI: > 100 µM
DMS 273 small cell lung
  TGI: > 100 µM
SK-OV-3 ovarian
  TGI: > 100 µM
SF-539 CNS
  TGI: > 100 µM
